Results as given in ChEMBL document CHEMBL5329155, “Synthesis and pharmacological evaluation of 1,3-diaryl substituted pyrazole based (thio)urea derivatives as potent antimicrobial agents against multi-drug resistant Staphylococcus aureus and Mycobacterium tuberculosis” (RSC Med Chem, 2023).
Converted amounts (≈) assume the structure as drawn. The source made the active and inactive calls. The calls are words filed in the database; no cut-off is given here.

How the values were obtained:
[1] = Metabolic stability in human liver microsome assessed as half life at 1 uM preincubated for 5 mins followed by NADPH addition and measured after 60 mins by LC-MS/MS analysis; type: ADME; settings: liver microsomes, time 65 min
[2] = tested on: Staphylococcus aureus; assay: Antibacterial activity against methicillin/ceftriaxone/meropenem/vancomycin/teicoplanin resistant Staphylococcus aureus VRS 12 assessed as reduction in bacterial growth incubated for 18 to 24 hrs by broth dilution method; type: functional; settings: time 18-24 hrs
[3] = Metabolic stability in human liver microsome assessed as intrinsic clearance at 1 uM preincubated for 5 mins followed by NADPH addition and measured after 60 mins by LC-MS/MS analysis; type: ADME; settings: liver microsomes, time 65 min, read-out: CLH
[4] = tested on: Staphylococcus aureus; assay: Antibacterial activity against methicillin/ceftriaxone/meropenem resistant Staphylococcus aureus NRS 129 assessed as reduction in bacterial growth incubated for 18 to 24 hrs by broth dilution method; type: functional; settings: time 18-24 hrs
[5] = tested on: Staphylococcus aureus; assay: Antibacterial activity against methicillin/ceftriaxone/meropenem resistant Staphylococcus aureus NRS 198 assessed as reduction in bacterial growth incubated for 18 to 24 hrs by broth dilution method; type: functional; settings: time 18-24 hrs
[6] = Aqueous solubility of compound in phosphate buffer at pH 7.4 incubated for 16 hrs by HPLC analysis; type: physicochemical
[7] = Metabolic stability in human liver microsome assessed as elimination rate constant at 1 uM preincubated for 5 mins followed by NADPH addition and measured after 60 mins by LC-MS/MS analysis; type: ADME; settings: liver microsomes, time 65 min
[8] = tested on: Staphylococcus aureus; assay: Antibacterial activity against methicillin/ceftriaxone/meropenem resistant Staphylococcus aureus NRS 186 assessed as reduction in bacterial growth incubated for 18 to 24 hrs by broth dilution method; type: functional; settings: time 18-24 hrs
[9] = tested on: Staphylococcus aureus; assay: Antibacterial activity against methicillin/ceftriaxone/meropenem/gentamycin/vancomycin/teicoplanin resistant Staphylococcus aureus VRS 1 assessed as reduction in bacterial growth incubated for 18 to 24 hrs by broth dilution method; type: functional; settings: time 18-24 hrs
[10] = tested on: Mycobacterium tuberculosis; assay: Antimycobacterial activity against Mycobacterium tuberculosis H37Rv ATCC 27294 assessed as inhibition of bacterial growth incubated for 18 to 24 hrs by broth dilution method; type: functional
[11] = tested on: Staphylococcus aureus; assay: Antibacterial activity against methicillin/ceftriaxone/meropenem resistant Staphylococcus aureus NRS 193 assessed as reduction in bacterial growth incubated for 18 to 24 hrs by broth dilution method; type: functional; settings: time 18-24 hrs
[12] = tested on: Staphylococcus aureus; assay: Antibacterial activity against methicillin/ceftriaxone/meropenem/vancomycin/teicoplanin resistant Staphylococcus aureus VRS 4 assessed as reduction in bacterial growth incubated for 18 to 24 hrs by broth dilution method; type: functional; settings: time 18-24 hrs
[13] = tested on: Staphylococcus aureus; assay: Antibacterial activity against methicillin/ceftriaxone/meropenem resistant Staphylococcus aureus NRS 191 assessed as reduction in bacterial growth incubated for 18 to 24 hrs by broth dilution method; type: functional; settings: time 18-24 hrs
[14] = tested on: Staphylococcus aureus; assay: Bacteriostatic activity against Staphylococcus aureus ATCC 29213 at 4 to 8 times MIC incubated for 2 to 24 hrs by time kill assay; type: functional, organism-based; settings: time 2-24 hrs
[15] = tested on: Staphylococcus aureus; assay: Antibacterial activity against methicillin-susceptible Staphylococcus aureus assessed as reduction in bacterial growth incubated for 18 to 24 hrs by broth dilution method; type: functional; settings: time 18-24 hrs
[16] = Cytotoxicity against African green monkey Vero cells assessed as reduction in cell viability incubated for 72 hrs by MTT assay; type: toxicity, cell-based; settings: chlorocebus sabaeus
[17] = tested on: Staphylococcus aureus; assay: Antibacterial activity against methicillin/ceftriaxone/meropenem/gentamycin/linezolid resistant Staphylococcus aureus NRS 100 assessed as reduction in bacterial growth incubated for 18 to 24 hrs by broth dilution method; type: functional; settings: time 18-24 hrs
[18] = Selectivity index, ratio of CC50 for cytotoxicity against African green monkey Vero cells assessed as reduction in cell viability to MIC for antibacterial activity against Staphylococcus aureus ATCC 29213 assessed as inhibition of bacterial growth; type: toxicity, cell-based; settings: read-out: Selectivity Index
[19] = tested on: Staphylococcus aureus; assay: Antibacterial activity against methicillin/ceftriaxone/meropenem/gentamycin/linezolid resistant Staphylococcus aureus NRS 119 assessed as reduction in bacterial growth incubated for 18 to 24 hrs by broth dilution method; type: functional; settings: time 18-24 hrs
[20] = tested on: Staphylococcus aureus; assay: Antibacterial activity against methicillin/ceftriaxone/meropenem resistant Staphylococcus aureus NRS 192 assessed as reduction in bacterial growth incubated for 18 to 24 hrs by broth dilution method; type: functional; settings: time 18-24 hrs
[21] = molecular target: DNA gyrase (Escherichia coli) (UniProt P0AES6+P0AES4); assay: Inhibition of Escherichia coli DNA gyrase supercoiling activity assessed as reduction in linear DNA formation at 8 times MIC incubated for 90 mins; type: protein-complex assay
[22] = tested on: Staphylococcus aureus; assay: Antibacterial activity against Staphylococcus aureus ATCC 29213 assessed as inhibition of bacterial growth measured for 18 to 24 hrs by broth dilution method; type: functional; settings: time 18-24 hrs
[23] = tested on: Staphylococcus aureus; assay: Antibacterial activity against methicillin/ceftriaxone resistant Staphylococcus aureus NRS 194 assessed as reduction in bacterial growth incubated for 18 to 24 hrs by broth dilution method; type: functional; settings: time 18-24 hrs
[24] = tested on: Mycobacterium tuberculosis; assay: Antimycobacterial activity against streptomycin-resisitant Mycobacterium tuberculosis ATCC 35820 assessed as inhibition of bacterial growth incubated for 18 to 24 hrs by broth dilution method; type: functional; settings: time 18-24 hrs
[25] = Selectivity index, ratio of CC50 for cytotoxicity against African green monkey Vero cells assessed as reduction in cell viability to MIC for antibacterial activity against Mycobacterium tuberculosis H37Rv ATCC 27294 assessed as inhibition of bacterial growth; type: toxicity, cell-based; settings: read-out: Selectivity Index
[26] = tested on: Mycobacterium tuberculosis; assay: Antimycobacterial activity against ethambutol-resisitant Mycobacterium tuberculosis ATCC 35837 assessed as inhibition of bacterial growth incubated for 18 to 24 hrs by broth dilution method; type: functional; settings: time 18-24 hrs
[27] = tested on: Mycobacterium tuberculosis; assay: Antimycobacterial activity against isoniazid-resisitant Mycobacterium tuberculosis ATCC 35822 assessed as inhibition of bacterial growth incubated for 18 to 24 hrs by broth dilution method; type: functional; settings: time 18-24 hrs
[28] = tested on: Mycobacterium tuberculosis; assay: Antimycobacterial activity against rifampicin-resisitant Mycobacterium tuberculosis ATCC 35838 assessed as inhibition of bacterial growth incubated for 18 to 24 hrs by broth dilution method; type: functional; settings: time 18-24 hrs
[29] = tested on: Mycobacterium tuberculosis; assay: Antimycobacterial activity against Mycobacterium tuberculosis assessed as reduction in bacterial growth; type: functional
[30] = tested on: Staphylococcus aureus; assay: Antibacterial activity against methicillin-resistant Staphylococcus aureus assessed as reduction in bacterial growth; type: functional
[31] = molecular target: DNA gyrase (Escherichia coli, UniProt P0AES4+P0AES6); assay: Inhibition of Escherichia coli DNA gyrase; type: protein-complex assay
[32] = tested on: Mycobacterium tuberculosis; assay: Antimycobacterial activity against Mycobacterium tuberculosis H37Rv assessed as reduction in bacterial growth; type: functional
[33] = tested on: Staphylococcus aureus; assay: Antibacterial activity against Staphylococcus aureus assessed as reduction in bacterial growth; type: functional
[34] = tested on: Mycolicibacterium fortuitum; assay: Antimycobacterial activity against Mycobacterium fortuitum assessed as reduction in bacterial growth incubated for 18 to 24 hrs by broth dilution method; type: functional; settings: time 18-24 hrs
[35] = tested on: Mycobacteroides chelonae; assay: Antibacterial activity against Mycobacteroides chelonae assessed as reduction in bacterial growth incubated for 18 to 24 hrs by broth dilution method; type: functional; settings: time 18-24 hrs

SMILES: COc1ccc(-c2ccn(-c3ccc(NC(=O)Nc4ccc(Cl)c(Cl)c4)cc3)n2)cc1OC
- half-life at 1 µM [1]: 1.8 h
- MIC [2]: 0.25 µg/mL (≈ 0.517 µM)
- microsomal CLint at 1 µM [3]: 12.4 µL/min/mg
- MIC [4]: 0.25 µg/mL (≈ 0.517 µM)
- MIC [5]: 0.25 µg/mL (≈ 0.517 µM)
- solubility at 16 h [6]: 5 µg/mL (≈ 10.3 µM)
- k el at 1 h, 1 µM [7]: 0.0001 s⁻¹
- MIC [8]: 0.25 µg/mL (≈ 0.517 µM)
- MIC [9]: 0.25 µg/mL (≈ 0.517 µM)
- MIC [10]: 32 µg/mL (≈ 66.2 µM)
- MIC [11]: 0.25 µg/mL (≈ 0.517 µM)
- MIC [12]: 0.25 µg/mL (≈ 0.517 µM)
- MIC [13]: 0.25 µg/mL (≈ 0.517 µM)
- Activity [14]: Active
- MIC [15]: 0.25 µg/mL (≈ 0.517 µM)
- CC50 at 72 h [16]: 10 µg/mL (≈ 20.7 µM)
- MIC [17]: 0.25 µg/mL (≈ 0.517 µM)
- selectivity ratio [18]: 40
- MIC [19]: 0.25 µg/mL (≈ 0.517 µM)
- MIC [20]: 0.25 µg/mL (≈ 0.517 µM)
- inhibition [21]: Active
- MIC [22]: 0.25 µg/mL (≈ 0.517 µM)
- MIC [23]: 0.25 µg/mL (≈ 0.517 µM)

SMILES: COc1ccc(-c2ccn(-c3ccc(NC(=O)Nc4ccc(F)cc4F)cc3)n2)cc1OC
- half-life at 1 µM [1]: 2.14 h
- MIC [24]: > 64 µg/mL
- microsomal CLint at 1 µM [3]: 10.4 µL/min/mg
- selectivity ratio [25]: > 200
- MIC [26]: 64 µg/mL (≈ 142 µM)
- solubility at 16 h [6]: 6 µg/mL (≈ 13.3 µM)
- k el at 1 h, 1 µM [7]: 8.33e-05 s⁻¹
- MIC [10]: 1 µg/mL (≈ 2.22 µM)
- CC50 at 72 h [16]: > 200 µg/mL
- MIC [27]: > 64 µg/mL
- MIC [28]: 4 µg/mL (≈ 8.88 µM)
- MIC [22]: > 64 µg/mL

SMILES: C[C@H]1COc2c(N3CCN(C)CC3)c(F)cc3c(=O)c(C(=O)O)cn1c23 [LEVOFLOXACIN ANHYDROUS]
- MIC [2]: 32 µg/mL (≈ 88.6 µM)
- MIC [4]: 0.25 µg/mL (≈ 0.692 µM)
- MIC [5]: 32 µg/mL (≈ 88.6 µM)
- MIC [8]: 4 µg/mL (≈ 11.1 µM)
- MIC [9]: 32 µg/mL (≈ 88.6 µM)
- MIC [10]: 0.25 µg/mL (≈ 0.692 µM)
- MIC [11]: 32 µg/mL (≈ 88.6 µM)
- MIC [12]: 32 µg/mL (≈ 88.6 µM)
- MIC [13]: 16 µg/mL (≈ 44.3 µM)
- MIC [15]: 0.25 µg/mL (≈ 0.692 µM)
- MIC [17]: 0.25 µg/mL (≈ 0.692 µM)
- MIC [19]: 16 µg/mL (≈ 44.3 µM)
- MIC [20]: 8 µg/mL (≈ 22.1 µM)
- MIC [22]: 0.25 µg/mL (≈ 0.692 µM)
- MIC [23]: 0.25 µg/mL (≈ 0.692 µM)

SMILES: Cc1c(C(=O)NN2CCCCC2)nn(-c2ccc(Cl)cc2Cl)c1-c1ccc(Cl)cc1 [RIMONABANT]
- MIC [29]: 25 µg/mL (≈ 53.9 µM)

SMILES: S=C(Nc1ccc(Cl)cc1)n1ccc(OCc2ccccc2)n1
- MIC [30]: 0.15 µM (≈ 0.0516 µg/mL)

SMILES: COc1ccc(Nc2n[nH]c(/N=C/c3ccc(N4CCCCC4)cc3)c2C(N)=O)cc1
- IC50 [31]: 7.69 mM

SMILES: O=C(Nc1ccc(-n2ccc(-c3cc4ccccc4o3)n2)cc1)c1cc([N+](=O)[O-])cc([N+](=O)[O-])c1
- MIC [32]: 0.03 µg/mL (≈ 0.0639 µM)

SMILES: CCOC(=O)c1c(N)csc1-c1cn(-c2ccccc2)nc1-c1ccc(C)cc1
- MIC [33]: 0.22 µg/mL (≈ 0.545 µM)
- IC50 [31]: 0.0123 mM

SMILES: COc1cc(-c2ccn(-c3ccc(NC(=O)NCc4ccccc4)cc3)n2)cc(OC)c1OC
- selectivity ratio [25]: < 10
- MIC [34]: 0.5 µg/mL (≈ 1.09 µM)
- MIC [10]: 0.5 µg/mL (≈ 1.09 µM)
- MIC [35]: 1 µg/mL (≈ 2.18 µM)
- CC50 at 72 h [16]: < 5 µg/mL
- MIC [22]: > 64 µg/mL

SMILES: COC(=O)c1cc(-c2cccc(NC(=O)Nc3ccc(Cl)c(Cl)c3)c2)on1
- MIC [32]: 0.25 µg/mL (≈ 0.615 µM)

SMILES: C[C@@H](O)[C@H]1C(=O)N2C(C(=O)O)=C(S[C@@H]3CN[C@H](C(=O)N(C)C)C3)[C@H](C)[C@H]12 [MEROPENEM]
- MIC [2]: 2 µg/mL (≈ 5.22 µM)
- MIC [4]: 8 µg/mL (≈ 20.9 µM)
- MIC [5]: 64 µg/mL (≈ 167 µM)
- MIC [8]: 8 µg/mL (≈ 20.9 µM)
- MIC [9]: 64 µg/mL (≈ 167 µM)
- MIC [11]: 64 µg/mL (≈ 167 µM)
- MIC [12]: 64 µg/mL (≈ 167 µM)
- MIC [13]: 64 µg/mL (≈ 167 µM)
- MIC [15]: 0.125 µg/mL (≈ 0.326 µM)
- MIC [17]: 64 µg/mL (≈ 167 µM)
- MIC [19]: 64 µg/mL (≈ 167 µM)
- MIC [20]: 16 µg/mL (≈ 41.7 µM)
- MIC [23]: 2 µg/mL (≈ 5.22 µM)

SMILES: COc1ccc(-c2ccn(-c3ccc(NC(=O)NCc4ccccc4)cc3)n2)cc1OC
- selectivity ratio [25]: 20
- MIC [10]: 1 µg/mL (≈ 2.33 µM)
- CC50 at 72 h [16]: 20 µg/mL (≈ 46.7 µM)
- MIC [22]: > 64 µg/mL
